Assays:
SNB-19 = test: Antitumor activity against human SNB19 cells; assay type: functional
Malme-3M = test: Antitumor activity against human MALME-3M cells; assay type: functional
HOP-62 = test: Antitumor activity against human HOP62 cells; assay type: functional
HT-29 = test: Antitumor activity against human HT29 cells; assay type: functional
[1] = Antitumor activity against human HL60 (TB) cells; assay type: functional, HL-60(TB); conditions: HL-60
OVCAR-8 = test: Antitumor activity against human OVCAR8 cells; assay type: functional
[2] = Antitumor activity against human NCI-H322 cells; assay type: functional
TK-10 = test: Antitumor activity against human TK10 cells; assay type: functional
SW-620 = test: Antitumor activity against human SW620 cells; assay type: functional
NCI-H23 = test: Antitumor activity against human NCI-H23 cells; assay type: functional
A549 = test: Antitumor activity against human A549 cells; assay type: functional
SR [3] = test: Growth inhibition of human SR cells at 1 uM; assay type: functional
PC-3 = test: Antitumor activity against human PC3 cells; assay type: functional
KM12 = test: Antitumor activity against human KM12 cells; assay type: functional
SK-OV-3 = test: Antitumor activity against human SK-OV-3 cells; assay type: functional
MOLT-4 = test: Antitumor activity against human MOLT4 cells; assay type: functional
RXF 393 = test: Antitumor activity against human RXF393 cells; assay type: functional
BT-549 = test: Antitumor activity against human BT549 cells; assay type: functional
HCT-116 = test: Antitumor activity against human HCT116 cells; assay type: functional
IGROV-1 = test: Antitumor activity against human IGROV1 cells; assay type: functional
CAKI-1 = test: Antitumor activity against human CAKI-1 cells; assay type: functional
HCC 2998 = test: Antitumor activity against human HCC2998 cells; assay type: functional
HOP-92 [4] = test: Antitumor activity against human HOP92 cells; assay type: functional
MCF7 = test: Antitumor activity against human MCF7 cells; assay type: functional
LOX IMVI = test: Antitumor activity against human LOX IMVI cells; assay type: functional
NCI/ADR-RES = test: Antitumor activity against human NCI/ADR-RES cells; assay type: functional
ACHN = test: Antitumor activity against human ACHN cells; assay type: functional
SNB-75 = test: Antitumor activity against human SNB75 cells; assay type: functional
U-251 = test: Antitumor activity against human U251 cells; assay type: functional
NCI-H522 = test: Antitumor activity against human NCI-H522 cells; assay type: functional
HCT-15 = test: Antitumor activity against human HCT15 cells; assay type: functional
[5] = Antitumor activity against human HS 578T cells; assay type: functional
CCRF-CEM [6] = test: Growth inhibition of huam CCRF-CEM at 1 uM; assay type: functional; conditions: Homo sapiens
K562 = test: Antitumor activity against human K562 cells; assay type: functional
EKVX = test: Antitumor activity against human EKVX cells; assay type: functional
OVCAR-5 = test: Antitumor activity against human OVCAR5 cells; assay type: functional
DU-145 = test: Antitumor activity against human DU145 cells; assay type: functional
UACC-62 = test: Antitumor activity against human UACC62 cells; assay type: functional
OVCAR-3 = test: Antitumor activity against human OVCAR-3 cells; assay type: functional
SF-295 = test: Antitumor activity against human SF295 cells; assay type: functional
UO-31 = test: Antitumor activity against human UO31 cells; assay type: functional
COLO 205 = test: Antitumor activity against human COLO205 cells; assay type: functional
A498 = test: Antitumor activity against human A498 cells; assay type: functional
SN12C = test: Antitumor activity against human SN12C cells; assay type: functional
SK-MEL-5 = test: Antitumor activity against human SK-MEL-5 cells; assay type: functional
786-0 = test: Antitumor activity against human 786-0 cells; assay type: functional
NCI-H226 = test: Antitumor activity against human NCI-H226 cells; assay type: functional
SK-MEL-28 = test: Antitumor activity against human SK-MEL-28 cells; assay type: functional
SF-268 = test: Antitumor activity against human SF268 cells; assay type: functional
MDA-MB-435 = test: Antitumor activity against human MDA-MB-435 cells; assay type: functional
RPMI-8226 = test: Antitumor activity against human RPMI8226 cells; assay type: functional
[7] = Antitumor activity against human […] cells; assay type: functional
SF-539 = test: Antitumor activity against human SF539 cells; assay type: functional
NCI-H460 = test: Antitumor activity against human NCI-H460 cells; assay type: functional
UACC-257 = test: Antitumor activity against human UACC257 cells; assay type: functional
OVCAR-4 = test: Antitumor activity against human OVCAR4 cells; assay type: functional
SR [8] = test: Antitumor activity against human SR cells; assay type: functional
CCRF-CEM [9] = test: Antitumor activity against human CCRF-CEM cells; assay type: functional
[10] = Growth inhibition of human HS 578T cells at 0.1 uM; assay type: functional
HOP-92 [11] = test: Growth inhibition of human HOP92 cells at 10 nM; assay type: functional

COc1ccc([C@H]2O[C@@H](CO)C[C@]2(O)c2ccc(OC)cc2)cc1 (relative stereo)
38.9 µM: GI50 [1]
> 100 µM: GI50 (SNB-19) | GI50 (Malme-3M) | GI50 (HOP-62) | GI50 (HT-29) | GI50 (OVCAR-8) | GI50 [2] | GI50 (TK-10) | GI50 (SW-620) | GI50 (NCI-H23) | GI50 (A549) | GI50 (PC-3) | GI50 (KM12) | GI50 (SK-OV-3) | GI50 (MOLT-4) | GI50 (BT-549) | GI50 (HCT-116) | GI50 (IGROV-1) | GI50 (CAKI-1) | GI50 (HCC 2998) | GI50 (MCF7) | GI50 (LOX IMVI) | GI50 (NCI/ADR-RES) | GI50 (ACHN) | GI50 (SNB-75) | GI50 (U-251) | GI50 (NCI-H522) | GI50 (HCT-15) | GI50 (K562) | GI50 (EKVX) | GI50 (OVCAR-5) | GI50 (DU-145) | GI50 (UACC-62) | GI50 (OVCAR-3) | GI50 (SF-295) | GI50 (UO-31) | GI50 (COLO 205) | GI50 (A498) | GI50 (SN12C) | GI50 (SK-MEL-5) | GI50 (786-0) | GI50 (NCI-H226) | GI50 (SK-MEL-28) | GI50 (SF-268) | GI50 (MDA-MB-435) | GI50 (RPMI-8226) | GI50 [7] | GI50 (SF-539) | GI50 (NCI-H460) | GI50 (UACC-257) | GI50 (OVCAR-4) | GI50 (CCRF-CEM [9])
39.8 µM: GI50 [5]
28.2 µM: GI50 (RXF 393)
50.1 µM: GI50 (SR [8])
36%: inhibition at 1 µM (SR [3])
95.5 µM: GI50 (HOP-92 [4])
46%: inhibition at 1 µM (CCRF-CEM [6])

OC[C@H]1C[C@](O)(c2ccc(F)cc2)[C@@H](c2ccc(F)cc2)O1 (relative stereo)
100 µM: GI50 (MOLT-4)
91.2 µM: GI50 (HCT-116)
29%: inhibition at 0.1 µM [10]
13%: inhibition at 0.01 µM (HOP-92 [11])
52.5 µM: GI50 (RXF 393)
66.1 µM: GI50 (HOP-92 [4])
44.7 µM: GI50 [5]
> 100 µM: GI50 (SNB-19) | GI50 (Malme-3M) | GI50 (HOP-62) | GI50 (HT-29) | GI50 [1] | GI50 (OVCAR-8) | GI50 [2] | GI50 (TK-10) | GI50 (SW-620) | GI50 (NCI-H23) | GI50 (A549) | GI50 (PC-3) | GI50 (KM12) | GI50 (SK-OV-3) | GI50 (BT-549) | GI50 (CAKI-1) | GI50 (HCC 2998) | GI50 (MCF7) | GI50 (LOX IMVI) | GI50 (NCI/ADR-RES) | GI50 (ACHN) | GI50 (SNB-75) | GI50 (U-251) | GI50 (NCI-H522) | GI50 (HCT-15) | GI50 (K562) | GI50 (EKVX) | GI50 (OVCAR-5) | GI50 (DU-145) | GI50 (UACC-62) | GI50 (OVCAR-3) | GI50 (SF-295) | GI50 (UO-31) | GI50 (COLO 205) | GI50 (A498) | GI50 (SN12C) | GI50 (SK-MEL-5) | GI50 (786-0) | GI50 (NCI-H226) | GI50 (SK-MEL-28) | GI50 (SF-268) | GI50 (MDA-MB-435) | GI50 (RPMI-8226) | GI50 [7] | GI50 (SF-539) | GI50 (NCI-H460) | GI50 (UACC-257) | GI50 (OVCAR-4) | GI50 (SR [8]) | GI50 (CCRF-CEM [9])
58.9 µM: GI50 (IGROV-1)

CS(=O)(=O)c1ccc([C@H]2O[C@@H](CO)C[C@]2(O)c2ccc(S(C)(=O)=O)cc2)cc1 (relative stereo)
> 100 µM: GI50 (SNB-19) | GI50 (Malme-3M) | GI50 (HOP-62) | GI50 (HT-29) | GI50 [1] | GI50 (OVCAR-8) | GI50 [2] | GI50 (TK-10) | GI50 (SW-620) | GI50 (NCI-H23) | GI50 (A549) | GI50 (PC-3) | GI50 (KM12) | GI50 (SK-OV-3) | GI50 (MOLT-4) | GI50 (RXF 393) | GI50 (BT-549) | GI50 (HCT-116) | GI50 (IGROV-1) | GI50 (CAKI-1) | GI50 (HCC 2998) | GI50 (HOP-92 [4]) | GI50 (MCF7) | GI50 (LOX IMVI) | GI50 (NCI/ADR-RES) | GI50 (ACHN) | GI50 (SNB-75) | GI50 (U-251) | GI50 (NCI-H522) | GI50 (HCT-15) | GI50 [5] | GI50 (K562) | GI50 (EKVX) | GI50 (OVCAR-5) | GI50 (DU-145) | GI50 (UACC-62) | GI50 (OVCAR-3) | GI50 (SF-295) | GI50 (UO-31) | GI50 (COLO 205) | GI50 (A498) | GI50 (SN12C) | GI50 (SK-MEL-5) | GI50 (786-0) | GI50 (NCI-H226) | GI50 (SK-MEL-28) | GI50 (SF-268) | GI50 (MDA-MB-435) | GI50 (RPMI-8226) | GI50 [7] | GI50 (SF-539) | GI50 (NCI-H460) | GI50 (UACC-257) | GI50 (OVCAR-4) | GI50 (SR [8]) | GI50 (CCRF-CEM [9])

O=c1[nH]cc(F)c(=O)[nH]1 [FLUOROURACIL]
200 µM: GI50 (SNB-75)
0.398 µM: GI50 (HCT-116)
316 µM: GI50 (EKVX)
126 µM: GI50 (SNB-19) | GI50 (TK-10)
50.1 µM: GI50 (PC-3) | GI50 (RXF 393) | GI50 (SF-295) | GI50 (SK-MEL-28) | GI50 (SF-268)
1 µM: GI50 (NCI-H460)
158 µM: GI50 (SK-OV-3) | GI50 (HOP-92 [4]) | GI50 (OVCAR-5)
5.01 µM: GI50 (UO-31) | GI50 (RPMI-8226)
2 µM: GI50 (A549)
25.1 µM: GI50 (SW-620) | GI50 (OVCAR-3) | GI50 (SN12C)
1.58 µM: GI50 (HCC 2998) | GI50 (MCF7)
251 µM: GI50 [5] | GI50 (NCI-H226)
3.98 µM: GI50 (CAKI-1) | GI50 (SR [8])
12.6 µM: GI50 (NCI-H23) | GI50 (MOLT-4) | GI50 (IGROV-1) | GI50 (UACC-62) | GI50 (SK-MEL-5) | GI50 (786-0)
100 µM: GI50 (BT-549) | GI50 (UACC-257)
1.26 µM: GI50 (SF-539)
39.8 µM: GI50 (NCI/ADR-RES) | GI50 (U-251) | GI50 (NCI-H522)
63.1 µM: GI50 (OVCAR-4)
20 µM: GI50 (Malme-3M) | GI50 (HOP-62) | GI50 [1] | GI50 (OVCAR-8) | GI50 [2] | GI50 (K562)
31.6 µM: GI50 (CCRF-CEM [9])
6.31 µM: GI50 (HT-29) | GI50 (LOX IMVI) | GI50 (HCT-15) | GI50 (COLO 205)
501 µM: GI50 [7]
10 µM: GI50 (KM12) | GI50 (ACHN) | GI50 (DU-145) | GI50 (A498) | GI50 (MDA-MB-435)

— ChEMBL document CHEMBL1143055, “2,3,5-Substituted tetrahydrofurans as cancer chemopreventives. Part 1: synthesis and anti-cancer activities of 5-hydroxymethyl-2,3-diaryl-tetrahydro-furan-3-ols” (2007)
